The target in test [1] is Cy5-labelled Mcl1 (amino acids 171-321) C286S protein (UniProtKB Q07820) (Homo sapiens (Human), UniProt Q07820, C286S). The test is described as follows: Inhibition of Mcl-1 by the fluorescence quenching assay (Example A, Method B). It is filed as binding. The gist of the method:
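Eleven-point compound series incubated 2 h at room temperature with 1 nM Cy5-tagged protein and quencher-labelled PUMA peptide at 10, 20 or 400 nM in HEPES/NaCl/Tween 20, pH 7.4, 5% DMSO. IC50 for 50% fluorescence increase by 4-parameter fit, then Ki derived (complete cKi or estimated eKi).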

The subject of another test is NCI-H929 cell lines. Briefly: In vitro cytotoxicity, CellTiter-Glo (CTG) assay (Example B, Method B). In kind it is cell-based. The following applies: Homo sapiens, NCI-H929, 48 h, NCI-H929 cells, 48 h incubation, read-out: C50. In short, it runs like this:
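ATP-based luminescence (CellTiter-Glo) after 48 h incubation at 37° C., 5% CO2 gave NCI-H929 viability. Eleven concentrations tested, highest final 30 μM, dispensed acoustically from 10 mM DMSO stocks; C50 defined as concentration reaching 50% viability.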

The values below come from patent publication US20240150293A1, “SPIROCYCLOHEXANE DERIVATIVES, PHARMACEUTICAL COMPOSITIONS CONTAINING THEM AND THEIR USES AS ANTI-APOPTOTIC INHIBITORS” (LES LABORATOIRES SERVIER, priority 2021, published 2024).

Molecules are shown by their SMILES.

Chain of Cy5-labelled Mcl1 (amino acids 171-321) C286S protein (Q07820 171-321 C286S): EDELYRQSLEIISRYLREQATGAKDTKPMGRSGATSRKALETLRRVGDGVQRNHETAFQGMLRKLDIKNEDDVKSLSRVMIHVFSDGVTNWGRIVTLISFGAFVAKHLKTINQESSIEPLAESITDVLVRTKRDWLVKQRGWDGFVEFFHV

On to `C[C@@H](COc1ccnc2c1[C@H](C)CCC2)C[C@H]1Cc2cc3c(cc2[C@]12CC[C@@](Nc1cccc(Cl)c1)(C(=O)OCC(F)(F)F)CC2)OCO3` [Example 932, 2,2,2-trifluoroethyl (1r,4S,6′S)-4-(3-chloroanilino)-6′-[(2R)-2-methyl-3-{[(5R)-5-methyl-5,6,7,8-tetrahydroquinolin-4-yl]oxy}propyl]-6′,7′-dihydro-2′H-spiro[cyclohexane-1,5′-indeno[5,6-d][1,3]dioxole]-4-carboxylate], for which, in test [1], the Ki worked out at 213 nM. In addition, the IC50 in the test on NCI-H929 cell lines is 13600 nM.

For the compound `COCCOCCOC(=O)[C@]1(Nc2cccc(Cl)c2)CC[C@@]2(CC1)c1cc3c(cc1C[C@@H]2C[C@@H](C)COc1ccnc2c1[C@H](C)CCC2)OCO3` [Example 933, 2-(2-methoxyethoxy)ethyl (1r,4S,6′S)-4-(3-chloroanilino)-6′-[(2R)-2-methyl-3-{[(5R)-5-methyl-5,6,7,8-tetrahydroquinolin-4-yl]oxy}propyl]-6′,7′-dihydro-2′H-spiro[cyclohexane-1,5′-indeno[5,6-d][1,3]dioxole]-4-carboxylate], the Ki in test [1] was 303 nM. The IC50 in the test on NCI-H929 cell lines worked out at 18900 nM.

Regarding `COCCOC(=O)[C@]1(Nc2cccc(Cl)c2)CC[C@@]2(CC1)c1cc3c(cc1C[C@@H]2C[C@@H](C)COc1ccnc2c1[C@H](C)CCC2)OCO3` [Example 934, 2-methoxyethyl (1r,4S,6′S)-4-(3-chloroanilino)-6′-[(2R)-2-methyl-3-{[(5R)-5-methyl-5,6,7,8-tetrahydroquinolin-4-yl]oxy}propyl]-6′,7′-dihydro-2′H-spiro[cyclohexane-1,5′-indeno[5,6-d][1,3]dioxole]-4-carboxylate], the Ki in test [1] came out at 69 nM. In addition, in the test on NCI-H929 cell lines, the IC50 is greater than 30000 nM.

Turning to `C[C@@H](COc1ccnc2c1[C@H](C)CCC2)C[C@H]1Cc2cc3c(cc2[C@]12CC[C@@](Nc1cccc(Cl)c1)(C(=O)OCCN(C)C)CC2)OCO3` [Example 935, 2-(dimethylamino)ethyl (1r,4S,6′S)-4-(3-chloroanilino)-6′-[(2R)-2-methyl-3-{[(5R)-5-methyl-5,6,7,8-tetrahydroquinolin-4-yl]oxy}propyl]-6′,7′-dihydro-2′H-spiro[cyclohexane-1,5′-indeno[5,6-d][1,3]dioxole]-4-carboxylate], in test [1], the Ki came out at 5.46 nM. Also, the IC50 with NCI-H929 cell lines was determined as 1900 nM.

On to `C[C@@H](COc1ccnc2c1[C@H](C)CCC2)C[C@H]1Cc2cc3c(cc2[C@]12CC[C@@](Nc1cccc(Cl)c1)(C(=O)OCC(=O)N(C)C)CC2)OCO3` [Example 936, 2-(dimethylamino)-2-oxoethyl (1r,4S,6′S)-4-(3-chloroanilino)-6′-[(2R)-2-methyl-3-{[(5R)-5-methyl-5,6,7,8-tetrahydroquinolin-4-yl]oxy}propyl]-6′,7′-dihydro-2′H-spiro[cyclohexane-1,5′-indeno[5,6-d][1,3]dioxole]-4-carboxylate], for which the Ki in test [1] amounted to 142 nM. Also, in the test on NCI-H929 cell lines, the IC50 was 6840 nM.

Take `Cc1oc(=O)oc1COC(=O)[C@]1(Nc2cccc(Cl)c2)CC[C@@]2(CC1)c1cc3c(cc1C[C@@H]2C[C@@H](C)COc1ccnc2c1[C@H](C)CCC2)OCO3` [Example 938, (5-methyl-2-oxo-2H-1,3-dioxol-4-yl)methyl (1r,4S,6′S)-4-(3-chloroanilino)-6′-[(2R)-2-methyl-3-{[(5R)-5-methyl-5,6,7,8-tetrahydroquinolin-4-yl]oxy}propyl]-6′,7′-dihydro-2′H-spiro[cyclohexane-1,5′-indeno[5,6-d][1,3]dioxole]-4-carboxylate]: the Ki in test [1] is 2.43 nM. For the same compound, in the test on NCI-H929 cell lines, the IC50 was determined as 44.2 nM.

For the compound `CC(=O)OC(C)OC(=O)[C@]1(Nc2cccc(Cl)c2)CC[C@@]2(CC1)c1cc3c(cc1C[C@@H]2C[C@@H](C)COc1ccnc2c1[C@H](C)CCC2)OCO3` (stereo partly drawn) [Example 939, 1-(acetyloxy)ethyl (1r,4S,6′S)-4-(3-chloroanilino)-6′-[(2R)-2-methyl-3-{[(5R)-5-methyl-5,6,7,8-tetrahydroquinolin-4-yl]oxy}propyl]-6′,7′-dihydro-2′H-spiro[cyclohexane-1,5′-indeno[5,6-d][1,3]dioxole]-4-carboxylate], the Ki in test [1] stood at 1.7 nM. Besides, the IC50 with NCI-H929 cell lines stood at 157 nM.

As for `CCC(=O)OC(C)OC(=O)[C@]1(Nc2cccc(Cl)c2)CC[C@@]2(CC1)c1cc3c(cc1C[C@@H]2C[C@@H](C)COc1ccnc2c1[C@H](C)CCC2)OCO3` (stereo partly drawn) [Example 940, 1-(propanoyloxy)ethyl (1r,4S,6′S)-4-(3-chloroanilino)-6′-[(2R)-2-methyl-3-{[(5R)-5-methyl-5,6,7,8-tetrahydroquinolin-4-yl]oxy}propyl]-6′,7′-dihydro-2′H-spiro[cyclohexane-1,5′-indeno[5,6-d][1,3]dioxole]-4-carboxylate], the Ki in test [1] was determined as 2.52 nM. Moreover, the IC50 in the test on NCI-H929 cell lines was determined as 266 nM.

Regarding `COCC(=O)OC(C)OC(=O)[C@]1(Nc2cccc(Cl)c2)CC[C@@]2(CC1)c1cc3c(cc1C[C@@H]2C[C@@H](C)COc1ccnc2c1[C@H](C)CCC2)OCO3` (stereo partly drawn) [Example 941, 1-[(methoxyacetyl)oxy]ethyl (1r,4S,6′S)-4-(3-chloroanilino)-6′-[(2R)-2-methyl-3-{[(5R)-5-methyl-5,6,7,8-tetrahydroquinolin-4-yl]oxy}propyl]-6′,7′-dihydro-2′H-spiro[cyclohexane-1,5′-indeno[5,6-d][1,3]dioxole]-4-carboxylate], in test [1], the Ki came to 3.94 nM. Also, the IC50 with NCI-H929 cell lines came out at 46.2 nM.

As to `C[C@@H](COc1ccnc2c1[C@H](C)CCC2)C[C@H]1Cc2cc3c(cc2[C@]12CC[C@@](Nc1cccc(Cl)c1)(C(=O)OCOC(=O)C(C)(C)C)CC2)OCO3` [Example 942, [(2,2-dimethylpropanoyl)oxy]methyl (1r,4S,6′S)-4-(3-chloroanilino)-6′-[(2R)-2-methyl-3-{[(5R)-5-methyl-5,6,7,8-tetrahydroquinolin-4-yl]oxy}propyl]-6′,7′-dihydro-2′H-spiro[cyclohexane-1,5′-indeno[5,6-d][1,3]dioxole]-4-carboxylate], the Ki in test [1] was determined as 15.5 nM. Besides, in the test on NCI-H929 cell lines, the IC50 came to 222 nM.

`COC(=O)OC(C)OC(=O)[C@]1(Nc2cccc(Cl)c2)CC[C@@]2(CC1)c1cc3c(cc1C[C@@H]2C[C@@H](C)COc1ccnc2c1[C@H](C)CCC2)OCO3` (stereo partly drawn) [Example 943, 1-[(methoxycarbonyl)oxy]ethyl (1r,4S,6′S)-4-(3-chloroanilino)-6′-[(2R)-2-methyl-3-{[(5R)-5-methyl-5,6,7,8-tetrahydroquinolin-4-yl]oxy}propyl]-6′,7′-dihydro-2′H-spiro[cyclohexane-1,5′-indeno[5,6-d][1,3]dioxole]-4-carboxylate]: the Ki in test [1] was determined as 1 nM. Besides, in the test on NCI-H929 cell lines, the IC50 was found to be 228 nM.

On to `CC(C)OC(=O)OC(C)OC(=O)[C@]1(Nc2cccc(Cl)c2)CC[C@@]2(CC1)c1cc3c(cc1C[C@@H]2C[C@@H](C)COc1ccnc2c1[C@H](C)CCC2)OCO3` (stereo partly drawn) [Example 944, 1-({[(propan-2-yl)oxy]carbonyl}oxy)ethyl (1r,4S,6′S)-4-(3-chloroanilino)-6′-[(2R)-2-methyl-3-{[(5R)-5-methyl-5,6,7,8-tetrahydroquinolin-4-yl]oxy}propyl]-6′,7′-dihydro-2′H-spiro[cyclohexane-1,5′-indeno[5,6-d][1,3]dioxole]-4-carboxylate], for which the inhibition at 1 µM in test [1] (@ 1 μM, read-out: Mcl-1 inhibition, % at a single concentration) came to 13.9%. Moreover, in the test on NCI-H929 cell lines, the IC50 is 2130 nM.

With `CC(OC(=O)OC1CCCC1)OC(=O)[C@]1(Nc2cccc(Cl)c2)CC[C@@]2(CC1)c1cc3c(cc1C[C@@H]2C[C@@H](C)COc1ccnc2c1[C@H](C)CCC2)OCO3` (stereo partly drawn) [Example 945, 1-{[(cyclopentyloxy)carbonyl]oxy}ethyl (1r,4S,6′S)-4-(3-chloroanilino)-6′-[(2R)-2-methyl-3-{[(5R)-5-methyl-5,6,7,8-tetrahydroquinolin-4-yl]oxy}propyl]-6′,7′-dihydro-2′H-spiro[cyclohexane-1,5′-indeno[5,6-d][1,3]dioxole]-4-carboxylate], in test [1], the inhibition constant Ki is 162 nM. Further, the IC50 with NCI-H929 cell lines was found to be 24700 nM.

As to `COC(=O)OCOC(=O)[C@]1(Nc2cccc(Cl)c2)CC[C@@]2(CC1)c1cc3c(cc1C[C@@H]2C[C@@H](C)COc1ccnc2c1[C@H](C)CCC2)OCO3` [Example 946, [(methoxycarbonyl)oxy]methyl (1r,4S,6′S)-4-(3-chloroanilino)-6′-[(2R)-2-methyl-3-{[(5R)-5-methyl-5,6,7,8-tetrahydroquinolin-4-yl]oxy}propyl]-6′,7′-dihydro-2′H-spiro[cyclohexane-1,5′-indeno[5,6-d][1,3]dioxole]-4-carboxylate], the Ki in test [1] amounted to 11 nM. For the same compound, the IC50 in the test on NCI-H929 cell lines amounted to 34.2 nM.

For `COCCNC(=O)OC(C)OC(=O)[C@]1(Nc2cccc(Cl)c2)CC[C@@]2(CC1)c1cc3c(cc1C[C@@H]2C[C@@H](C)COc1ccnc2c1[C@H](C)CCC2)OCO3` (stereo partly drawn) [Example 947, 1-{[(2-methoxyethyl)carbamoyl]oxy}ethyl (1r,4S,6′S)-4-(3-chloroanilino)-6′-[(2R)-2-methyl-3-{[(5R)-5-methyl-5,6,7,8-tetrahydroquinolin-4-yl]oxy}propyl]-6′,7′-dihydro-2′H-spiro[cyclohexane-1,5′-indeno[5,6-d][1,3]dioxole]-4-carboxylate], the Ki in test [1] was 0.256 nM. Moreover, the IC50 in the test with NCI-H929 cell lines is 604 nM.

As for `CC(OC(=O)N1CCOCC1)OC(=O)[C@]1(Nc2cccc(Cl)c2)CC[C@@]2(CC1)c1cc3c(cc1C[C@@H]2C[C@@H](C)COc1ccnc2c1[C@H](C)CCC2)OCO3` (stereo partly drawn) [Example 948, 1-({(1r,4S,6′S)-4-(3-chloroanilino)-6′-[(2R)-2-methyl-3-{[(5R)-5-methyl-5,6,7,8-tetrahydroquinolin-4-yl]oxy}propyl]-6′,7′-dihydro-2′H-spiro[cyclohexane-1,5′-indeno[5,6-d][1,3]dioxole]-4-carbonyl}oxy)ethyl morpholine-4-carboxylate], in test [1], the Ki came to 64.9 nM. For the same compound, the IC50 with NCI-H929 cell lines was 7120 nM.
